Reference: ChEMBL document CHEMBL1201862, “PubChem BioAssay data set” (2004)
Calls of active or inactive are those of the source.

Experiments:
[1] = biological target: G-protein coupled receptor 183 (Homo sapiens, UniProt P32249); experiment: SAR confirmation of small molecule antagonists of the EBI2 receptor via a luminescent beta-arrestin assa.; assay type: functional
[2] = inhibitors of Vif binding to APOBEC3G peptide, primary screen, biochemical, TR-FRET, GST-Vif 1-94, biotin-A3G peptide, dose response retest (AID 1117319); assay type: functional;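 further: TR-FRET signal of purified GST-Vif binding a biotinylated A3G peptide; inhibitors lower the FRET signal by blocking Vif and A3G binding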
[3] = biological target: NAD-dependent protein deacylase sirtuin-5, mitochondrial (Homo sapiens, UniProt Q9NXA8); experiment: SIRT5 desuccinylase inhibitors, dose response, biochemical, fluorescence imaging, cherry-pick, set 5 (AID 720591);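 further: desuccinylation of succinyl peptide AMC substrate read as fluorescence after trypsin release; potency of inhibitors that lower fluorescence and may act on trypsin instead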
NAD-dependent protein deacylase sirtuin-5, mitochondrial, sequence (Q9NXA8 whole entry): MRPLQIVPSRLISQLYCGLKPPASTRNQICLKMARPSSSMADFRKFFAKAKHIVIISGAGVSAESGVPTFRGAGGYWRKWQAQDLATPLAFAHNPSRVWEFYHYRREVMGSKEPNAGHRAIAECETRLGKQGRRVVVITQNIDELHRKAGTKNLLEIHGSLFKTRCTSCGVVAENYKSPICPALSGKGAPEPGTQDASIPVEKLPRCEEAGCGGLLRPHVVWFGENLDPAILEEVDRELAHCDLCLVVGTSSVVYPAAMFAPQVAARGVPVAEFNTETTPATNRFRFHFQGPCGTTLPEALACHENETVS

[4] = biological target: T1, Protein Tat (Human immunodeficiency virus type 1 group M subtype B (isolate HXB2)(HIV-1), UniProt P04608); assay type: functional;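 further: tat binding to TAR RNA read out by fluorescence polarization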
T1 sequence (P04608 whole entry): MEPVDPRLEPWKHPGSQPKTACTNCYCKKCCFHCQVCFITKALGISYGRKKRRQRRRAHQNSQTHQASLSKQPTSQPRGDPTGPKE

[5] = Vero cell cytotoxicity, dose response, cytotoxicity control for Vif-APOBEC3G degradation inhibitor project, Vero cells (AID 1117358); assay type: functional; conditions: Human immunodeficiency virus 1, Vero
[6] = biological target: RNA-editing ligase 1, mitochondrial (Trypanosoma brucei brucei, UniProt P86926); experiment: TbREL1 ligase inhibitors, dose response, biochemical, fluorescence, Trypanosoma brucei (AID 1117295); assay type: functional
RNA-editing ligase 1, mitochondrial, sequence (P86926 whole entry): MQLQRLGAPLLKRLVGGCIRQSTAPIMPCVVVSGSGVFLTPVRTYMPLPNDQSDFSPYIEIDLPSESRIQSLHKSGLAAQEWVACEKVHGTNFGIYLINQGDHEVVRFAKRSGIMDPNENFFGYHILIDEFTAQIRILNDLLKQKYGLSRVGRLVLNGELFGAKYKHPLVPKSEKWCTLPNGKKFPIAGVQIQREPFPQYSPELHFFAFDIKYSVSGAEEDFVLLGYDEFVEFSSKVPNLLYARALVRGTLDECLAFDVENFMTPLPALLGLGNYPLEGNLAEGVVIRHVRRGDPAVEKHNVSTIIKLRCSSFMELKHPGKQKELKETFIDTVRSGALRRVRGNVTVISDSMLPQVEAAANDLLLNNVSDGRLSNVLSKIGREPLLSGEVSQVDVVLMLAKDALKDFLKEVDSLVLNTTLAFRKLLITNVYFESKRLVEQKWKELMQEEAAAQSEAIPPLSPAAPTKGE

[7] = biological target: T2, Replicative DNA helicase DnaB (Mycobacterium tuberculosis, UniProt P9WMR3); experiment: DnaB intein splicing inhibitors, dose response, biochemical, cell-free fluorescence (AID 449749); assay type: functional
T2 sequence (P9WMR3 whole entry): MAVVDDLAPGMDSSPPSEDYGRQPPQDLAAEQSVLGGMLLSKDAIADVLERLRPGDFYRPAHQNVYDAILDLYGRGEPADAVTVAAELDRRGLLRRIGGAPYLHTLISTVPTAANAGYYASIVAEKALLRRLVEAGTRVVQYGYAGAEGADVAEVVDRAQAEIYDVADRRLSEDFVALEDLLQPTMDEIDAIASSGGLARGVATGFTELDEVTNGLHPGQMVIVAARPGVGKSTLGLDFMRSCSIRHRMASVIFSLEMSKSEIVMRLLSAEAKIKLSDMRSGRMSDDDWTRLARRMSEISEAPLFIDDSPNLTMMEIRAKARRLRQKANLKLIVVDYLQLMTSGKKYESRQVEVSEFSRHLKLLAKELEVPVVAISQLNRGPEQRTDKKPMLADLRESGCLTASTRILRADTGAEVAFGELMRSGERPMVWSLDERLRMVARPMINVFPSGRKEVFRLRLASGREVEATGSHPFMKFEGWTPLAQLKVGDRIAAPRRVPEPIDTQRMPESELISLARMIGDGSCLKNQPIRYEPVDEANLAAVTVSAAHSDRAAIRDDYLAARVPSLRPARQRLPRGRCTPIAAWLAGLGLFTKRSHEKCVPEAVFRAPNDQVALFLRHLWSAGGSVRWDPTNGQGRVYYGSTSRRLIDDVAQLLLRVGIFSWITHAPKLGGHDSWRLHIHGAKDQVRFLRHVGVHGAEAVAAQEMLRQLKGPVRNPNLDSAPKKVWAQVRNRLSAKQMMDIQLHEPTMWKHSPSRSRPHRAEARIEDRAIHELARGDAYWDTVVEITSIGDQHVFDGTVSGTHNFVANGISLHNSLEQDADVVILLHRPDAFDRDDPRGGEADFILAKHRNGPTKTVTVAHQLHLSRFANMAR

[8] = biological target: Heat shock protein HSP 90-alpha (Homo sapiens, UniProt P07900); assay type: functional, organism-based
[9] = biological target: T3, Apoptotic protease-activating factor 1 (Homo sapiens, UniProt O14727); assay type: functional
T3 sequence (O14727 whole entry): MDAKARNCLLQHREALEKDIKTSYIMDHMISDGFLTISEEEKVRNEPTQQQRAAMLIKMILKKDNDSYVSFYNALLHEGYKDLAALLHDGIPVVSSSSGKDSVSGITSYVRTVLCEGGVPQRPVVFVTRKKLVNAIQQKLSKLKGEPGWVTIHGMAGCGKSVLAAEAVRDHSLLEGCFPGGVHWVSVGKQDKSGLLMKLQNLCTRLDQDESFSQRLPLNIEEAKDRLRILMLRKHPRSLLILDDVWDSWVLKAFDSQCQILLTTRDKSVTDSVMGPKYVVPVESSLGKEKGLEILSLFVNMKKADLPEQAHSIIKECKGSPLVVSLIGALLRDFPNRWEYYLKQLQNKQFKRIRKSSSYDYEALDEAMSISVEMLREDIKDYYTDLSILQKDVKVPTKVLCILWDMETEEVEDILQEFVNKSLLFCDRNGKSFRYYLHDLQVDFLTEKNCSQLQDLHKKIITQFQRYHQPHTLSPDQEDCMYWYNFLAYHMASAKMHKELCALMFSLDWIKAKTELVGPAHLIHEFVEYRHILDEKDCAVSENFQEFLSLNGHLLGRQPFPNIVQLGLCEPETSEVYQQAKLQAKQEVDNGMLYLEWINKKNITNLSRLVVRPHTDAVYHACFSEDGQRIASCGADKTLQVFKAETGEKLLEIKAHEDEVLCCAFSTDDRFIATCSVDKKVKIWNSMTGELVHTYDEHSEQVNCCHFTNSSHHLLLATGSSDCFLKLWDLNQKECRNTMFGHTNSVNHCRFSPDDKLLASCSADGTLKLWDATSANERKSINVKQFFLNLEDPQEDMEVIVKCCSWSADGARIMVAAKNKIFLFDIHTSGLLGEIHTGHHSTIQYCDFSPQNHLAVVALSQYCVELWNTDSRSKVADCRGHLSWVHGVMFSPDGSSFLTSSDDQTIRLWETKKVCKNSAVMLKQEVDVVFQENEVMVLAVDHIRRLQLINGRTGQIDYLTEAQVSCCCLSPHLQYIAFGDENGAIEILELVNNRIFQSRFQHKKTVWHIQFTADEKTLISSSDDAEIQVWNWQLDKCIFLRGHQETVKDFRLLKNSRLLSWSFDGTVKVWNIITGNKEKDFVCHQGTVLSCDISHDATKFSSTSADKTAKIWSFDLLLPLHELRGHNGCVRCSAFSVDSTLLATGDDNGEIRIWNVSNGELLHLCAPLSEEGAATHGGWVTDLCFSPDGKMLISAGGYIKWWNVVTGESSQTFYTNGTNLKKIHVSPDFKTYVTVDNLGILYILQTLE

[10] = biological target: T4, Protein RecA (Mycobacterium tuberculosis, UniProt P9WHJ3); experiment: Fluorescence Cell-Free Homogeneous Dose Retest to Identify Inhibitors of RecA-Intein Splicing Activity. [Related pubchem assays (depositor defined):AID2097, AID2223, AID489010, AID492950]; assay type: functional
T4 sequence (P9WHJ3 whole entry): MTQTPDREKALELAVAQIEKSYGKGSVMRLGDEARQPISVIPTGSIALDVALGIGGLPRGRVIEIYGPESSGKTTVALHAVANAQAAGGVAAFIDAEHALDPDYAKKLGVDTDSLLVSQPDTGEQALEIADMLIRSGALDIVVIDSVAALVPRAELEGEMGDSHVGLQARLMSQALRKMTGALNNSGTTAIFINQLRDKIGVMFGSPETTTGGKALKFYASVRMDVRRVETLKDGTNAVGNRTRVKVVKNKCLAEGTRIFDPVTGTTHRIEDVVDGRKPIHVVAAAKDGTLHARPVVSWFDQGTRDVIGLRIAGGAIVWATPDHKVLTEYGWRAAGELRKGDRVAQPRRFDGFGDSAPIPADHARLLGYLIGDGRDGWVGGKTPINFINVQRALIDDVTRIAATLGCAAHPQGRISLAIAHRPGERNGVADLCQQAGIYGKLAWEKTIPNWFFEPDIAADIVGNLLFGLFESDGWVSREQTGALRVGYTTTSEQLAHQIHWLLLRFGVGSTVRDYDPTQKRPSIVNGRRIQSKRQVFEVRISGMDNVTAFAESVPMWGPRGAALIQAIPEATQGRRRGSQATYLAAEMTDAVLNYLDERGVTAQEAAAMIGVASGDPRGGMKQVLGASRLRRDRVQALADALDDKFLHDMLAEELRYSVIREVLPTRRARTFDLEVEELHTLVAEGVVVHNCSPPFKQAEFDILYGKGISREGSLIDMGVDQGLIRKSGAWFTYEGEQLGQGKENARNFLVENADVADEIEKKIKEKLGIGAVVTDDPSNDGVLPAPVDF

[11] = Artemis endonuclease inhibitor potency, dose response, biochemical, fluorescence intensity (AID 720701); assay type: functional;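 further: Artemis endonuclease enzyme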
[12] = biological target: Phospholipase D2 (Homo sapiens, UniProt O14939); experiment: PLD2 Cellular Concentration Response Study.; assay type: functional
Phospholipase D2, sequence (O14939 whole entry): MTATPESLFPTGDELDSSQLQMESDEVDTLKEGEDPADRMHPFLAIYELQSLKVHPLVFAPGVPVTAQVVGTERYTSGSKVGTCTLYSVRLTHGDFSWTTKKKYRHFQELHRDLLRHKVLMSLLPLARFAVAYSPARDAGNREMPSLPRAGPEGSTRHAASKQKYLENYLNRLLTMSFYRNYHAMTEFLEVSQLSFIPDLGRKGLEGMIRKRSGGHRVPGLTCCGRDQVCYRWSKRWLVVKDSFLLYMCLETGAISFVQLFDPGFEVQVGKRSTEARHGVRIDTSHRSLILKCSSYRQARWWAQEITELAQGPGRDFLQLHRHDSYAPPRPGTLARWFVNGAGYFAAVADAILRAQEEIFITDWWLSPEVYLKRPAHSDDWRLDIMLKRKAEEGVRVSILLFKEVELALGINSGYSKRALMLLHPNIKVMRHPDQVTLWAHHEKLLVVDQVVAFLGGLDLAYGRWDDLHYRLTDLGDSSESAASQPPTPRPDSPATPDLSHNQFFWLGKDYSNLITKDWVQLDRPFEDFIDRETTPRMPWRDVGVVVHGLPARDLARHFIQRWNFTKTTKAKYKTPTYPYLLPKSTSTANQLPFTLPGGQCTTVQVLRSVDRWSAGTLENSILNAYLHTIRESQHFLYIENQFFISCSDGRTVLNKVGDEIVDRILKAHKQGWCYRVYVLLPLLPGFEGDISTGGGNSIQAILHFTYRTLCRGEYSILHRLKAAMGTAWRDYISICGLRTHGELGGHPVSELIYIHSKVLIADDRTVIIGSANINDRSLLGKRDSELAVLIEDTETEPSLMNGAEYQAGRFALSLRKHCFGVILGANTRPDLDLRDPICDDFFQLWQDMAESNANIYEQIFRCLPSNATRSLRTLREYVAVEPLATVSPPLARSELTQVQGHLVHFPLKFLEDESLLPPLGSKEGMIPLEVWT

[13] = biological target: T5, Phospholipase D1 (Homo sapiens, UniProt Q13393); experiment: PLD1 Cellular Concentration Response Study.; assay type: functional
T5 sequence (Q13393 whole entry): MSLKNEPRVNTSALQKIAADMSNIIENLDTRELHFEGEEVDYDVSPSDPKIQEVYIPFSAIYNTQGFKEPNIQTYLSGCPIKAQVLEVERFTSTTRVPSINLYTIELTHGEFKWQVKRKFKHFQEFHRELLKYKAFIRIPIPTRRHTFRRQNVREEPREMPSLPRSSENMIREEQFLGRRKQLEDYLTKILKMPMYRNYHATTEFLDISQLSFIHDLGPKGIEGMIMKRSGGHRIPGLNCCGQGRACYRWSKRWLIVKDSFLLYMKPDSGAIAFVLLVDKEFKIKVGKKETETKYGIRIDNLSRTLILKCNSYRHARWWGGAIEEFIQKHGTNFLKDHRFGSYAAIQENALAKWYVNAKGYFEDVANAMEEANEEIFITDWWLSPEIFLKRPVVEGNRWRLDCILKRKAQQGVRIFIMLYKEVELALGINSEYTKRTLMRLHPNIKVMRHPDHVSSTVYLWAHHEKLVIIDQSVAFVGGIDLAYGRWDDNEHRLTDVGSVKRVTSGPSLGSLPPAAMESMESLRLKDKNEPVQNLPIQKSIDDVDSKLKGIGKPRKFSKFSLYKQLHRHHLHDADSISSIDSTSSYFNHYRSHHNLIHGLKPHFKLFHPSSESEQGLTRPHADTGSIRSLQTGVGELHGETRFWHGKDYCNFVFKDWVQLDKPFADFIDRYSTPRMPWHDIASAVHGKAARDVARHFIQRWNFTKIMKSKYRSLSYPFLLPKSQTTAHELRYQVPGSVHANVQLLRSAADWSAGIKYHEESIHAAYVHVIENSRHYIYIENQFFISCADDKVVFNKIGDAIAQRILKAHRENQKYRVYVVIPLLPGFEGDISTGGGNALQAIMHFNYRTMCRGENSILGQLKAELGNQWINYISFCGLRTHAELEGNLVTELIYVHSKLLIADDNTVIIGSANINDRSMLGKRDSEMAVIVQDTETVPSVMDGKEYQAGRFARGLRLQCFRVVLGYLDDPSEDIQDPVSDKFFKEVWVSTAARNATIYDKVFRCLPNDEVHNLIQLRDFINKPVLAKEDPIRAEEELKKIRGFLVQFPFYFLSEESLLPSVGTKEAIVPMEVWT

[14] = biological target: T6, Oxysterols receptor LXR-beta (Homo sapiens, UniProt P55055); assay type: functional, cell-based;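 further: Cell-based luminescence dose-response assay of agonist activity at LXR, run as a confirmatory counterscreen to a daf-12 agonist screen; HEK293 cells with Gal4-LXR fusion and GAL4-driven luciferase reporter; agonist potency from rising luciferase signal of a Gal4-LXR reporter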
T6 sequence (P55055 whole entry): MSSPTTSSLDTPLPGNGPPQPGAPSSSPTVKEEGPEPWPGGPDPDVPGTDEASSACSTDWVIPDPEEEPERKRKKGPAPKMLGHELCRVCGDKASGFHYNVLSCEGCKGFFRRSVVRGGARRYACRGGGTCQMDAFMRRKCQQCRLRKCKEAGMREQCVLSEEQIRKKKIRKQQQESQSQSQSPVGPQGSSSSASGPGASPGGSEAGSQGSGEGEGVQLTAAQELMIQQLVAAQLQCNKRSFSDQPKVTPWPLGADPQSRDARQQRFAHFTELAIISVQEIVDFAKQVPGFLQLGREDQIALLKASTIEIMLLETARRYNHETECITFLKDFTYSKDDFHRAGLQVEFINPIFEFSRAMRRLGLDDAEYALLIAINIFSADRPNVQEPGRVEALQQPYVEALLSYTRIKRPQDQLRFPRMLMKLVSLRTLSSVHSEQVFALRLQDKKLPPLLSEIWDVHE

[15] = cells

G-protein coupled receptor 183, sequence (P32249 whole entry): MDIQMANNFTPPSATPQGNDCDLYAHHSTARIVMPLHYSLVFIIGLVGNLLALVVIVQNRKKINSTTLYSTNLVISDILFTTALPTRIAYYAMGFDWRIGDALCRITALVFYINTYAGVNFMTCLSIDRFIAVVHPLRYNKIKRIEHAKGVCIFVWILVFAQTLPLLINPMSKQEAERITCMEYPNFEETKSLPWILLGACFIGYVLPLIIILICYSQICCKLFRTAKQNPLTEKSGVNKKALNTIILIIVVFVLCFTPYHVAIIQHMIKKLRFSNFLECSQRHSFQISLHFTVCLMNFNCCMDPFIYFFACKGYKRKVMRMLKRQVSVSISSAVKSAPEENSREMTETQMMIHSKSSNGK

For O=C(/C=C/c1ccc(Br)cc1)N1CCN(Cc2ccc(Cl)cc2)CC1, the IC50 [1] was 0.00103 µM (active).

In the case of O=C(Cc1ccc(Br)cc1)N1CCN(Cc2ccc(Cl)cc2)CC1, the IC50 [1] is reported as > 1 µM (inactive).

In the case of O=C(O)c1ccccc1NS(=O)(=O)c1ccccc1C(F)(F)F, the IC50 [2] is reported as > 100 µM (active).

For CC(C)CCN1C(=O)c2ccccc2C1c1nnnn1-c1ccc2c(c1)OCCO2 (stereo unspecified), the AC50 [3] was > 30 µM (inactive).

For CCc1nc(OCc2ccco2)c2sc3nc4c(cc3c2n1)COC(C)(C)C4, the IC50 [4] was > 100 µM (active), the IC50 [2] was > 100 µM (active) and the CC50 [5] was > 40 µM (active).

With CCCn1c(SCC(=O)Nc2ccc3c(c2)OCO3)nc2c1c(=O)n(C)c(=O)n2C the AC50 [3] was > 30 µM (inactive).

For COC(=O)C1=C(C)N(Cc2ccccc2C(F)(F)F)C(NCc2ccc(C(F)(F)F)cc2)=NC1c1ccc(Cl)cc1 (stereo unspecified), the IC50 [6] was > 96.6 µM (inactive).

In the case of Cc1[nH]n(-c2ccccc2)c(=O)c1C(C[N+](=O)[O-])c1ccc(Br)cc1 (stereo unspecified), the AC50 [7] is reported as 7.55 µM (active), the AC50 [8] is reported as 7.85 µM (active) and the IC50 [9] is reported as 4.17 µM (active). For the same molecule, the EC50 [10] was 5.73 µM (active) and the IC50 [11] was > 20 µM (inactive).

In the case of O=C(NCCN1CCC2(CC1)C(=O)NCN2Cc1cccc2ccccc12)c1ccc2ccccc2c1, the IC50 [12] is reported as 0.16 µM (active) and the IC50 [13] is reported as 1.05 µM (active).

In the case of O=C(NCCN1CCC2(CC1)C(=O)NCN2Cc1cccnc1)c1ccc2ccccc2c1Br, the IC50 [12] is reported as 1.24 µM (active) and the IC50 [13] is reported as 20 µM (active).

In the case of CC1=NN(C(N)=S)C(=O)C1N=Nc1ccc(Br)cc1 (stereo unspecified), the EC50 [14] is reported as > 67.6 µM (inactive) and the EC50 [15] is reported as > 67.6 µM (inactive).

With C=C(Cl)COc1ccc2c(CCC)cc(=O)oc2c1 the CC50 [5] was > 40 µM (active).
